Where a name gives a salt, the structure may show the parent alone. Read-outs that look alike come from different tables or passages of the source.
Biological target: T1, SARS-CoV-2 3CL-Pro (Severe acute respiratory syndrome coronavirus 2, UniProt P0DTD1)
T1 construct: SARS-CoV-2 main protease (3CL-Pro), also termed M-Pro
Assay: biochemical
Conditions: for inhibition at 20 µM: read-out: 3CL-Pro Inhibition [%] Primary Screen (20 µM)

[1] = dose response, 8 concentrations, absence of DTT, 60 min pre-incubation at 37 °C, 15 µM substrate, 60 nM enzyme, read-out: IC50

SMILES	inhibition at 20 µM [%]	IC50 (read-out: IC50) [nM]	other results
COc1ccc2[nH]c([S+]([O-])Cc3ncc(C)c(OC)c3C)nc2n1 (racemic) [compound 9, (±)-5-Methoxy-2-(4-methoxy-3,5-dimethylpyridin-2-ylmethylsulfinyl)imidazo[4,5-b]pyridine]	69.1		IC50: 970 nM
Oc1cc2c(cc1O)[C@@H]1c3ccccc3CN[C@H]1CC2 (relative stereo) [compound 77, trans-10,11-Dihydroxy-5,6,6a,7,8,12b-hexahydrobenzo[a]phenanthridine]			IC50: 1050 nM
O=c1cc(-c2ccccc2)oc2cc(O)c(O)c(O)c12 [compound 1, 5,6,7-Trihydroxy-2-phenyl-4H-1-benzopyran-4-one]	97.8		
O=C1c2c(O)cc(O)cc2O[C@H](c2cc(O)c(O)c(O)c2)[C@H]1O [compound 2, (+)-3(R),5,7-Trihydroxy-2(R)-(3,4,5-trihydroxyphenyl)-3,4-dihydro-2H-1-benzopyran-4-one]	99.7		
O=c1cc(-c2ccc(O)cc2)oc2cc(O)cc(O)c12 [compound 4, 4',5,7-Trihydroxyflavone]	94.5	3020	
C[C@@H]1O[C@@H](Oc2c(-c3cc(O)c(O)c(O)c3)oc3cc(O)cc(O)c3c2=O)[C@H](O)[C@H](O)[C@H]1O [compound 5, 5,7-Dihydroxy-4-oxo-2-(3,4,5-trihydroxyphenyl)-4H-1-benzopyran-3-yl alpha-L-rhamnopyranoside]	90.6		IC50: 3660 nM
O=C(O[C@@H]1Cc2c(O)cc(O)cc2O[C@@H]1c1cc(O)c(O)c(O)c1)c1cc(O)c(O)c(O)c1 [compound 6, (-)-3,4,5-Trihydroxybenzoic acid 5,7-dihydroxy-2(R)-(3,4,5-trihydroxyphenyl)-3,4-dihydro-2H-1-benzopyran-3(R)-ylester]	95.3		
COCCCOc1ccnc(C[S+]([O-])c2nc3ccccc3[nH]2)c1C (centres unmarked) [compound 8, 2-[4-(3-Methoxypropoxy)-3-methylpyridin-2-ylmethylsulfinyl]benzimidazol-1-ide sodium salt]	94.3	740	
O=c1c2ccccc2[se]n1-c1ccccc1 [compound 10, 2-Phenyl-1,2-benzisoselenazol-3(2H)-one]	100		
Cc1ccc(C)c(-n2sc3cc(F)ccc3c2=O)c1 [compound 11, 2-(2,5-Dimethylphenyl)-6-fluoro-1,2-benzothiazol-3(2H)-one]	101	20	
Cc1ccc(-n2sc3ccccc3c2=O)cc1 [compound 12, 2-(4-methylphenyl)-1,2-benzothiazol-3-one]	101		IC50: 20 nM
CN(C)S(=O)(=O)c1cccc(-n2sc3ccccc3c2=O)c1 [compound 13, N,N-di methyl-3-(3-oxo-1,2-benzothiazol-2-yl)benzenesulfonamide]	101		IC50 [1]: 20 nM
O=c1c2ccccc2sn1-c1ccccc1 [compound 14, 2-phenyl-1,2-benzothiazol-3-one]	100		IC50: 20 nM
O=C1C(Cl)=C(N2CCOCC2)C(=O)N1c1ccc(Cl)c(Cl)c1 [compound 15, 3-chloro-1-(3,4-dichlorophenyl)-4-morpholin-4-ylpyrrole-2,5-dione]	99.2	1140	
CN1CCN(C2=C(Cl)C(=O)N(c3ccc(Cl)c(Cl)c3)C2=O)CC1 [compound 16, 3-chloro-1-(3,4-dichlorophenyl)-4-(4-methylpiperazin-1-yl)pyrrole-2,5-dione]	100		
Cc1ccc(S(=O)(=O)C=CC#N)cc1 [compound 17, 3-(4-Methylphenylsulfonyl)-2-propenenitrile]	95.7		IC50: 820 nM
CC(C)(C)c1ccc(S(=O)(=O)/C=C/C#N)cc1 [compound 18, 3-(4-tert-Butylphenylsulfonyl)-2(E)-propenenitrile]	100	840	
Cn1sc(=O)n(Cc2ccccc2)c1=O [compound 19, 4-Benzyl-2-methyl-1,2,4-thiadiazolidine-3,5-dione]	101	140	
S=c1[nH]nc(Cc2ccccc2)s1 [compound 20, 5-benzyl-3H-1,3,4-thiadiazole-2-thione]	101		IC50 [1]: 390 nM
Cc1ccc(S(=O)(=O)N[C@@H](Cc2ccccc2)C(=O)C(=O)CCl)cc1 [compound 21, N-[(2S)-5-chloro-3,4-dioxo-1-phenylpentan-2-yl]-4-methylbenzenesulfonamide]	99.7		IC50: 1370 nM
CC(Cc1ccc(O)c(O)c1)C(C)Cc1ccc(O)c(O)c1 (centres unmarked) [compound 22, 4-[4-(3,4-dihydroxyphenyl)-2,3-dimethylbutyl]benzene-1,2-diol]	98.5	2590	
O=C1C2CC=CCC2C(=O)N1SC(Cl)(Cl)Cl (centres unmarked) [compound 23, 2-(trichloromethylsulfanyl)-3a,4,7,7a-tetrahydroisoindole-1,3-dione]	99.8	670	
S=c1[nH]c2ccccc2s1 [compound 24, 3H-1,3-benzothiazole-2-thione]	94	1740	
c1ccc2sc(SNC3CCCCC3)nc2c1 [compound 26, N-(1,3-benzothiazol-2-ylsulfanyl)cyclohexanamine]	70.1	770	

SMILES	inhibition at 20 µM [%]	IC50 (read-out: IC50) [nM]	other results
c1ccc2sc(SN3CCOCC3)nc2c1 [compound 27, 4-(1,3-benzothiazol-2-ylsulfanyl)morpholine]	99	5050	
CCC(C)SSc1ncc[nH]1 (centres unmarked) [compound 28, (2-Imidazolyl)(1-methylpropyl)disulfide]	100		
O=C(O)c1ccc(SSc2ccc(C(=O)O)cn2)nc1 [compound 29, 6-[(5-carboxypyridin-2-yl)disulfanyl]pyridine-3-carboxylic acid]	100	240	
Oc1ccc2ccccc2c1SSc1c(O)ccc2ccccc12 [compound 30, 1,1'-Disulfanediylbis(2-naphthol)]	91.3	510	
O=C1C=Cc2cc(Br)ccc2C1=O [compound 32, 6-Bromonaphthalene-1,2-dione]	102	40	
C=CC(=O)c1ccc2ccccc2c1 [compound 33, 1-naphthalen-2-ylprop-2-en-1-one]	94.5	1240	
Nc1ccc(O)c2ncccc12 [compound 34, 5-aminoquinolin-8-ol]	99.3	2050	
CCC(=O)OCN1C(=O)C=CC1=O [compound 36, Propionic acid 2,5-dioxo-2,5-dihydro-1H-pyrrol-1-ylmethyl ester]	100	290	
CN(C)CCNc1nc2cc(O)ccc2c2c1C(=O)c1ccccc1-2 [compound 38, 6-[2-(Dimethylamino)ethylamino]-3-hydroxy-7H-indeno[2,1-c]quinolin-7-one dihydrochloride]	96.1	2990	
CCCC[C@@H](C=O)NC(=O)[C@H](CC(C)C)NC(=O)OCc1ccccc1 [compound 39, N2-[(Benzyloxy)carbonyl]-N-[(2S)-1-oxohexan-2-yl]-L-leucinamide]	81		
CC(C)[C@H](NC(=O)[C@H](CCC(=O)O)NC(=O)[C@H](CC(=O)O)NC(=O)OCc1ccccc1)C(=O)N[C@@H](CC(=O)O)C(=O)CF [compound 40, N-(Benzyloxycarbonyl)-L-aspartyl-L-glutamyl-L-valyl-L-aspartylfluoromethane]	100		IC50: 10 nM
CC(=O)[O-].[Hg+][c]1ccccc1 [compound 42, acetyloxy(phenyl)mercury]			IC50: 10 nM
O=C1C(Cl)=C(Cl)C(=O)C(Cl)=C1Cl [compound 43, 2,3,5,6-tetrachlorocyclohexa-2,5-diene-1,4-dione]	101	20	
Nc1nnc(Sc2ncc([N+](=O)[O-])s2)s1 [compound 44, 5-(5-Nitrothiazol-2-ylsulfanyl)-1,3,4-thiadiazol-2-amine]	99.9	30	
CN(C)C(=S)SSC(=S)N(C)C [compound 45, dimethylcarbamothioylsulfanyl N ,N-dimethylcarbamodithioate]	99.9	50	
CCN(CC)C(=S)SSC(=S)N(CC)CC [compound 46, Tetraethylthioperoxydicarbonic diamide]	99.7		
[O-]n1ccccc1=S.[O-]n1ccccc1=S.[Zn+2] [compound 47, Bis[1-hydroxy-2(1H)-pyiridinethionato]zinc]		2460	3CL-Pro Inhibition [%] Primary Screen (20 µM): 99.7%
On1ccccc1=S [compound 48, 1-hydroxypyridine-2-thione]	101		IC50: 50 nM
O=c1sn(-c2cccc3ccccc23)c(=O)n1Cc1ccccc1 [compound 49, 4-Benzyl-2-(1-naphthyl)-1,2,4-thiadiazolidine-3,5-dione]	101		
O=[N+]([O-])c1ccc(Sc2cccc[n+]2[O-])c2nonc12 [compound 50, 4-Nitro-1-[(1-oxidopyridin-2-yl)sulfanyl]-2,1,3-benzoxadiazole]	102	100	
CCN1CCN(C(c2ccc(C(F)(F)F)cc2)c2ccc3cccnc3c2O)CC1 (centres unmarked) [compound 52, 7-[(4-Ethylpiperazin-1-yl)[4-(trifluoromethyl)phenyl]methyl]q uinolin-8-ol]	100	150	
Cc1ccc(-n2sc(=O)n(Cc3ccc(F)cc3)c2=O)cc1 [compound 53, 4-(4-Fluorobenzyl)-2-(4-methylphenyl)-1,2,4-thiadiazolidine-3,5-dione]		150	
CCCCCCNC(=O)n1cc(F)c(=O)[nH]c1=O [compound 55, 5-Fluoro-N-hexyl-2,4-dioxo-1,2,3,4-tetrahydropyrimidine-1-carboxamide]	101		
O=C(CCl)c1ccccc1 [compound 56, 2-chloro-1-phenylethanone]	99.9	190	

Reference: patent publication EP4011367A1, “COMPOUNDS FOR USE IN THE TREATMENT OF COVID-19” (priority 2020, dated 2022)
